Results reported in PMC5397059, “Design, synthesis and structure-activity relationship study of wollamide B; a new potential anti TB agent” (PLoS ONE, 2017).
Read-outs that look alike come from different tables or passages of the source. Non-standard residues stand in square brackets, D forms with d. Residues, ends and D or L forms follow the SMILES beside them. NMeN = CN[C@@H](CC(N)=O)C(=O)O; NMeL = CN[C@@H](CC(C)C)C(=O)O; dNMeL = CN[C@H](CC(C)C)C(=O)O; NMeV = CN[C@H](C(=O)O)C(C)C; dOrn = NCCC[C@@H](N)C(=O)O

Key:
Chrom logD assay = format: physicochemical; details: pH 7.4, read-out: Log D
Experimental: The Chromatographic Hydrophobicity Index (CHI) values were measured using a reversed phase HPLC column (50 x 2 mmx 3 μMGemini NX C18, Phenomenex, UK) with fast acetonitrile gradient at starting mobile phase of 100% pH = 7.4 buffer. CHI values are derived directly from the gradient retention times by using a calibration line obtained for standard compounds. The CHI value approximates to the volume % organic concentration when the compound elutes. CHI is linearly transformed into ChromlogD by the formula: ChromlogD=0.0857CHI−2.00
The average error of the assay is ±3 CHI unit or ±0.25 ChromlogD.

[1] = Intrinsic clearance (CLint) assay, human liver microsomes; format: in vitro ADME; details: for CLint Human: human liver microsomes; for half-life at 0.5 µM: human, pooled human liver microsomes, pH 7.4, human liver microsomes, read-out: Microsomal t1/2 Human; for % LBF Human: liver blood flow; for CLpred Human: predicted metabolic clearance
Experimental: (§1) Pooled mouse and human liver microsomes are purchased from Xenotech. Microsomes (final protein concentration 0.5 mg/mL, MgCl2 (final concentration = 5 mM) and test compound (final substrate concentration = 0.5] M; final DMSO concentration = 0.5%) in 0.1 M phosphate buffer pH 7.4 are pre-incubated at 37°C prior to the addition of NADPH (final concentration = 1 mM) to initiate the reaction. The final incubation volume is 600 μL.
(§2) Control incubation is included for each compound tested where 0.1 M phosphate buffer pH 7.4 is added instead of NADPH (minus NADPH). One control compound is included with each species. All incubations are performed singularly for each test compound. Each compound is incubated for 45 minutes and samples (100 μL) of incubate are taken at 0, 5, 15, 30 and 45 min. The control (minus NADPH) is sampled at 30 min only. The reactions are stopped by the addition of sample to 200 μL Acetonitrile: Methanol 3:1 containing internal standard. The terminated samples are centrifuged at 2,500 rpm for 20 min at 4°C to precipitate the protein. Quantitative analysis: following protein precipitation, the samples were analyzed using specific LC-MS/MS conditions. Data analysis: from a plot of ln peak area ratio (compound peak area/internal standard peak area) against time, the gradient of the line was determined. Subsequently, half-life and intrinsic clearance were calculated using the equations below: Eliminationrateconstant(K)=(−gradient) Halflife(t1/2)(min)=0.693/K Cli(mL/min/gprotien)=V×0.693/t1/2 WhereV=Incubationvolume(mL/gmicrosomalprotien)

[2] = Chemi-Luminescent Nitrogen Detection (CLND) kinetic solubility assay; format: physicochemical; details: phosphate buffered saline, pH 7.4; kinetic aqueous solubility by CLND; read-out: Solubility
Experimental: GSK in-house kinetic solubility assay: 5 μL of 10mM DMSO stock solution diluted to 100 uL with pH7.4 phosphate buffered saline, equilibrated for 1 hour at room temperature, filtered through Millipore Multiscreen HTS-PCF filter plates (MSSL BPC).
The filtrate is quantified by suitably calibrated flow injection CLND. The standard error of the CLND solubility determination is ±30 μM, the upper limit of the solubility is 500 μM when working from 10 mM DMSO stock solution.

human serum albumin = human serum albumin (Homo sapiens, UniProt P02768); experiment: Human serum albumin (HSA) binding assay; format: in vitro ADME; details: human serum albumin binding
Sequence of human serum albumin (P02768 25-609): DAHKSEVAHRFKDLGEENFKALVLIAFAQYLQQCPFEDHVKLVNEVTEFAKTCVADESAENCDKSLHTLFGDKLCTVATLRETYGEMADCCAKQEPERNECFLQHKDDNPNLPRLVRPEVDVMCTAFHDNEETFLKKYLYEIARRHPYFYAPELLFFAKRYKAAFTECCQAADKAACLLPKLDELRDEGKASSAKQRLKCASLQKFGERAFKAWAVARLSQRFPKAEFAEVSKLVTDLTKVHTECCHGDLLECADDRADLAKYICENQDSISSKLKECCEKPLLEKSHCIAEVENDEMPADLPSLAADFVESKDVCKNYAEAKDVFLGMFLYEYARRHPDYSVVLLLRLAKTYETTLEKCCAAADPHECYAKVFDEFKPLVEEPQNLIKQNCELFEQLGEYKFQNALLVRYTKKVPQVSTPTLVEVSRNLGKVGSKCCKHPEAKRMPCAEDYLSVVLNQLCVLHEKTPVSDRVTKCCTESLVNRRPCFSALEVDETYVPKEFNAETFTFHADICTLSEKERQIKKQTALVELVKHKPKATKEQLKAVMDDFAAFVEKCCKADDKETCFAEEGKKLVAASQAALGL
Experimental: HSA binding assay was performed according to the method described by Valko K, et al. The basic principle of the measurements is the determination of gradient retention times of compounds on immobilized HSA column and converting these retention times to the appropriate property values using calibration. The peaks are detected and identified by UV. Calibration sets of compounds are measured before each run for which the HSA binding values are known. The retention times of the calibration set of compounds are plotted against these known values. The slope and the intercept of the obtained straight lines are used to calculate the HSA binding for the unknown compounds.

[3] = Artificial membrane permeability assay; format: in vitro ADME; details: PAMPA, pH 7.4; passive artificial membrane permeability; read-out: Permeability
Experimental: A 8% L-a-phosphatidylcholine (EPC) in 1% cholesterol decane solution and a 1.8% EPC in cholesterol decane solution were prepared. The lipid solution was then aliquoted into 4 mL capped vials, sealed with parafilm and stored in-20°Cfreezer. The lipid solution was then transferred from 4 mL vial into 96-well half area plate (130μL/well) for daily assay usage. An additional 50 mM phosphate buffer with 0.5% encapsin, pH at 7.4 was prepared. The assay was run by the Biomek FX and Biomek software. The assay procedure is written under the Biomek software. For one batch assay, it can test two 96-well sample plates with at least one standard on each sample plate. The total assay time was about 4 hours. 3.5 μL of lipid solution were added to the filler plate, shaken for 12 seconds, and 250 μL of buffer were added to donor side and 100 μL to the receiver side. The assay plate was shaken for 45 min before adding the compounds. The test compounds (2.5 μL) were added to the donor side. The assay was run as replicates: Assay plates1 and 2 tested the sample plate 1; assay plates 3 and 4 tested the sample plate 2. The assay plates were then incubated and shaken for 3 hours at room temperature.
The assay samples were transferred to the HPLC analysis plates and 100 μL of receiver solution were aspirated and transferred to the receiver for analysis. Similarly, another 100 μL from the donor solution were transferred to the donor analysis plate.
Compound concentration was measured by HPLC at different time-points and permeability was established as nm/sec.

[4] = Intrinsic clearance (CLint) assay, mouse liver microsomes; format: in vitro ADME; details: for % LBF Mouse: liver blood flow; for CLint Mouse: mouse liver microsomes; for half-life at 0.5 µM: mouse, pooled mouse liver microsomes, pH 7.4, read-out: Microsomal t1/2 Mouse; for CLpred Mouse: predicted metabolic clearance
Experimental: as §1, §2

[5] = amide bond, 18-membered ring, HATU/HOBt/DIEA
[6] = reversed phase HPLC column (Gemini NX C18)

CC(C)C[C@@H]1NC(=O)[C@H](Cc2c[nH]c3ccccc23)NC(=O)[C@@H](CCCN)NC(=O)[C@H](CC(N)=O)N(C)C(=O)[C@H](C(C)C)NC(=O)[C@@H](CC(C)C)N(C)C1=O [Compound 25c] (cyclo(L[dNMeL]V[NMeN][dOrn]W))
chromatographic logD (Chrom logD assay; [6]): 2.25
CLint Human [1]: <0.40 mL/min/g tissue
half-life at 0.5 µM [1]: > 139 min
% LBF Human [1]: <35.08%
CLpred Human [1]: <6.35 mL/min/kg
solubility kinetic at 1 h [2]: ≥ 221 µg/mL
% HSA (human serum albumin): 82.97%
Papp at 3 h [3]: < 1 ×10⁻⁶ cm/s
% LBF Mouse [4]: <16.3%
CLint Mouse [4]: <0.48 mL/min/g tissue
half-life at 0.5 µM [4]: > 139 min
CLpred Mouse [4]: <20.50 mL/min/kg

CC(C)C[C@H]1NC(=O)[C@H](CC(C)C)N(C)C(=O)[C@H](Cc2c[nH]c3ccccc23)NC(=O)[C@@H](CCCN)NC(=O)[C@H](CC(N)=O)N(C)C(=O)[C@H](C(C)C)NC1=O [Compound 23c] (cyclo([NMeL][dL]V[NMeN][dOrn]W))
chromatographic logD (Chrom logD assay; [6]): 2
CLint Human [1]: 3.19 mL/min/g tissue
half-life at 0.5 µM [1]: 17.2 min
% LBF Human [1]: 81.29%
CLpred Human [1]: 14.63 mL/min/kg
solubility kinetic at 1 h [2]: ≥ 174 µg/mL
% HSA (human serum albumin): 82.21%
Papp at 3 h [3]: < 1 ×10⁻⁶ cm/s
% LBF Mouse [4]: 30.00%
CLint Mouse [4]: 1.06 mL/min/g tissue
half-life at 0.5 µM [4]: 63 min
CLpred Mouse [4]: 37.80 mL/min/kg

CC[C@H](C)[C@@H]1NC(=O)[C@@H](CC(C)C)NC(=O)[C@H](CC(C)C)NC(=O)[C@H](Cc2c[nH]c3ccccc23)NC(=O)[C@@H](CCCNC(=N)N)NC(=O)[C@H](CC(N)=O)NC1=O [Compound 13c] (cyclo(IN[dR]WL[dL]))
chromatographic logD (Chrom logD assay): 2.05
CLint Human [1]: 7.44 mL/min/g tissue
half-life at 0.5 µM [1]: 7.4 min
% LBF Human [1]: 91.01%
CLpred Human [1]: 16.38 mL/min/kg
solubility kinetic at 1 h [2]: ≥ 189 µg/mL
% HSA (human serum albumin): 87.55%
Papp at 3 h [3]: 1.1 ×10⁻⁶ cm/s
% LBF Mouse [4]: 29.00%
CLint Mouse [4]: 1.01 mL/min/g tissue
half-life at 0.5 µM [4]: 63 min
CLpred Mouse [4]: 36.60 mL/min/kg

CC(C)C[C@@H]1NC(=O)[C@H](Cc2c[nH]c3ccccc23)NC(=O)[C@@H](CCCN)NC(=O)[C@H](CC(N)=O)NC(=O)[C@H](C(C)C)N(C)C(=O)[C@@H](CC(C)C)NC1=O [Compound 22c] (cyclo(L[dL][NMeV]N[dOrn]W))
chromatographic logD (Chrom logD assay; [6]): 1.96
CLint Human [1]: <0.40 mL/min/g tissue
half-life at 0.5 µM [1]: > 139 min
% LBF Human [1]: <35.08%
CLpred Human [1]: <6.35 mL/min/kg
solubility kinetic at 1 h [2]: ≥ 153 µg/mL
% HSA (human serum albumin): 73.98%
Papp at 3 h [3]: < 1 ×10⁻⁶ cm/s
% LBF Mouse [4]: <16.3%
CLint Mouse [4]: <0.48 mL/min/g tissue
half-life at 0.5 µM [4]: > 139 min
CLpred Mouse [4]: <20.50 mL/min/kg

CC[C@H](C)[C@@H]1NC(=O)[C@@H](CC(C)C)NC(=O)[C@H](CC(C)C)NC(=O)[C@H](Cc2c[nH]c3ccccc23)NC(=O)[C@@H](CCCN)NC(=O)[C@H](CO)NC1=O [Compound 10c] (cyclo(IS[dOrn]WL[dL]))
chromatographic logD (Chrom logD assay; [6]): 2.16
CLint Human [1]: 9.77 mL/min/g tissue
half-life at 0.5 µM [1]: 5.63 min
% LBF Human [1]: 93.00%
CLpred Human [1]: 16.70 mL/min/kg
solubility kinetic at 1 h [2]: ≥ 228 µg/mL
% HSA (human serum albumin): 86.47%
Papp at 3 h [3]: < 1 ×10⁻⁶ cm/s
% LBF Mouse [4]: <16.3%
CLint Mouse [4]: <0.48 mL/min/g tissue
half-life at 0.5 µM [4]: > 139 min
CLpred Mouse [4]: <20.50 mL/min/kg

CC(C)C[C@H]1NC(=O)[C@H](CC(C)C)N(C)C(=O)[C@H](Cc2c[nH]c3ccccc23)NC(=O)[C@@H](CCCN)NC(=O)[C@H](CC(N)=O)NC(=O)[C@H](C(C)C)N(C)C1=O [Compound 24c] (cyclo(N[dOrn]W[NMeL][dL][NMeV]))
chromatographic logD (Chrom logD assay; [6]): 2.18
CLint Human [1]: 3.51 mL/min/g tissue
half-life at 0.5 µM [1]: 37.3 min
% LBF Human [1]: 82.70%
CLpred Human [1]: 14.90 mL/min/kg
solubility kinetic at 1 h [2]: ≥ 217 µg/mL
% HSA (human serum albumin): 87.02%
Papp at 3 h [3]: < 1 ×10⁻⁶ cm/s
% LBF Mouse [4]: 42.0%
CLint Mouse [4]: 1.79 mL/min/g tissue
half-life at 0.5 µM [4]: 15.7 min
CLpred Mouse [4]: 52.90 mL/min/kg

CC[C@H](C)[C@@H]1NC(=O)[C@@H](CC(C)C)NC(=O)[C@H](CC(C)C)NC(=O)[C@H](Cc2cn(C(=O)OC(C)(C)C)c3ccccc23)NC(=O)[C@@H](CCCNC(=N)NS(=O)(=O)c2c(C)c(C)c3c(c2C)CC(C)(C)O3)NC(=O)[C@H](CC(=O)NC(c2ccccc2)(c2ccccc2)c2ccccc2)NC1=O [cyclo (D-Leu-Ile-Asn(Trt)-D-Arg (Pbf)-Trp(Boc)-Leu)]
ring closure, isolated yield ([5]; from H-dLeu-Ile-Asn(Trt)-dArg(Pbf)-Trp(Boc)-Leu-OH): 70%

CSCC[C@@H]1NC(=O)[C@@H](CC(C)C)NC(=O)[C@H](CC(C)C)NC(=O)[C@H](Cc2cn(C(=O)OC(C)(C)C)c3ccccc23)NC(=O)[C@@H](CCCNC(=O)OC(C)(C)C)NC(=O)[C@H](CC(=O)NC(c2ccccc2)(c2ccccc2)c2ccccc2)NC1=O [cyclo (D-Leu-Met-Asn(Trt)-D-Orn(Boc)-Trp(Boc)-Leu)]
ring closure, isolated yield ([5]; from H-dLeu-Met-Asn(Trt)-dOrn(Boc)-Trp(Boc)-Leu-OH): 40%

CC(C)C[C@@H]1NC(=O)[C@H](Cc2cn(C(=O)OC(C)(C)C)c3ccccc23)NC(=O)[C@@H](CCCNC(=O)OC(C)(C)C)NC(=O)[C@H](CC(=O)NC(c2ccccc2)(c2ccccc2)c2ccccc2)NC(=O)[C@H](C(C)C)NC(=O)[C@@H](CC(C)C)NC1=O [cyclo (Trp (Boc)-D-Orn(Boc)-Asn(Trt)-Val-D-Leu-Leu)]
ring closure, isolated yield ([5]; from H-dLeu-Val-Asn(Trt)-dOrn(Boc)-Trp(Boc)-Leu-OH): 68%
